According to patent US20240287007A1, “N-(1,3,4-OXADIAZOL-2-YL)PHENYLCARBOXAMIDES AS HERBICIDES” (BAYER AKTIENGESELLSCHAFT, priority 2021, published 2024):

Tests used:
Format in all cases: in vivo
AVEFA (Avena fatua) = assay: Pre-emergence herbicidal effect against AVEFA; conditions: scored visually after 3 weeks
Description: (§1) Seeds of monocotyledonous and dicotyledonous weed plants and crop plants are laid out in sandy loam soil in wood-fiber pots and covered with soil. The compounds of the invention, formulated in the form of wettable powders (WP) or as emulsion concentrates (EC), are then applied to the surface of the covering soil as aqueous suspension or emulsion at a water application rate equating to 600 to 800 l/ha with addition of 0.2% wetting agent. After the treatment, the pots are placed in a greenhouse and kept under good growth conditions for the trial plants. The damage to the test plants is scored visually after a test period of 3 weeks by comparison with untreated controls (herbicidal activity in percent (%): 100% activity=the plants have died, 0% activity=like control plants).

[1] = system: ABUTH (Abutylon threophrasti); assay: Pre-emergence herbicidal effect against ABUTH; conditions: scored visually after 3 weeks
Description: as §1

[2] = system: DIGSA (Digitaria sanguinalis); assay: Post-emergence herbicidal action against DIGSA; conditions: visual assessment after about 3 weeks
Experimental: (§2) Seeds of monocotyledonous and dicotyledonous weed and crop plants are laid out in sandy loam soil in wood-fiber pots, covered with soil and cultivated in a greenhouse under good growth conditions. 2 to 3 weeks after sowing, the trial plants are treated at the one-leaf stage. The compounds of the invention, formulated in the form of wettable powders (WP) or as emulsion concentrates (EC), are then sprayed onto the green parts of the plants as aqueous suspension or emulsion at a water application rate equating to 600 to 800 l/ha with addition of 0.2% wetting agent. After the test plants have been left to stand in the greenhouse under optimal growth conditions for about 3 weeks, the action of the preparations is assessed visually in comparison to untreated controls (herbicidal action in percent (%): 100% activity=the plants have died, 0% activity=like control plants).

[3] = system: ABUTH (Abutylon threophrasti); assay: Post-emergence herbicidal action against ABUTH; conditions: visual assessment after about 3 weeks
Experimental: as §2

[4] = system: AMARE (Amaranthus retroflexus); assay: Post-emergence herbicidal action against AMARE; conditions: visual assessment after about 3 weeks
Experimental: as §2

[5] = system: MATIN (Matricaria inodora); assay: Pre-emergence herbicidal effect against MATIN; conditions: scored visually after 3 weeks
Description: as §1

VIOTR (Viola tricolor) [6] = assay: Post-emergence herbicidal action against VIOTR; conditions: visual assessment after about 3 weeks
Experimental: as §2

VIOTR (Viola tricolor) [7] = assay: Pre-emergence herbicidal effect against VIOTR; conditions: scored visually after 3 weeks
Description: as §1

[8] = system: MATIN (Matricaria inodora); assay: Post-emergence herbicidal action against MATIN; conditions: visual assessment after about 3 weeks
Experimental: as §2

VERPE (Veronica persica) [9] = assay: Pre-emergence herbicidal effect against VERPE; conditions: 80 g/ha, scored visually after 3 weeks
Description: as §1

SETVI (Setaria viridis) [10] = assay: Post-emergence herbicidal action against SETVI; conditions: visual assessment after about 3 weeks
Experimental: as §2

SETVI (Setaria viridis) [11] = assay: Pre-emergence herbicidal effect against SETVI; conditions: scored visually after 3 weeks
Description: as §1

[12] = system: AMARE (Amaranthus retroflexus); assay: Pre-emergence herbicidal effect against AMARE; conditions: scored visually after 3 weeks
Description: as §1

VERPE (Veronica persica) [13] = assay: Post-emergence herbicidal action against VERPE; conditions: visual assessment after about 3 weeks
Experimental: as §2

[14] = system: PHBPU (Pharbitis purpurea); assay: Post-emergence herbicidal action against PHBPU; conditions: visual assessment after about 3 weeks
Experimental: as §2

[15] = system: ECHCG (Echinochloa crus-galli); assay: Pre-emergence herbicidal effect against ECHCG; conditions: scored visually after 3 weeks
Description: as §1

LOLRI (Lolium rigidum) [16] = assay: Post-emergence herbicidal action against LOLRI; conditions: visual assessment after about 3 weeks
Experimental: as §2

[17] = system: PHBPU (Pharbitis purpurea); assay: Pre-emergence herbicidal effect against PHBPU; conditions: scored visually after 3 weeks
Description: as §1

[18] = system: DIGSA (Digitaria sanguinalis); assay: Pre-emergence herbicidal effect against DIGSA; conditions: scored visually after 3 weeks
Description: as §1

[19] = system: POLCO (Polygonum convolvulus); assay: Post-emergence herbicidal action against POLCO; conditions: visual assessment after about 3 weeks
Experimental: as §2

LOLRI (Lolium rigidum) [20] = assay: Pre-emergence herbicidal effect against LOLRI; conditions: scored visually after 3 weeks
Description: as §1

[21] = system: ALOMY (Alopecurus myosuroides); assay: Pre-emergence herbicidal effect against ALOMY; conditions: 80 g/ha, scored visually after 3 weeks
Description: as §1

KCHSC (Kochia scoparia) [22] = assay: Pre-emergence herbicidal effect against KCHSC; conditions: scored visually after 3 weeks
Description: as §1

[23] = system: POLCO (Polygonum convolvulus); assay: Pre-emergence herbicidal effect against POLCO; conditions: scored visually after 3 weeks
Description: as §1

KCHSC (Kochia scoparia) [24] = assay: Post-emergence herbicidal action against KCHSC; conditions: visual assessment after about 3 weeks
Experimental: as §2

CS(=O)(=O)c1c(OC(F)(F)F)ccc(C(=O)Nc2nnco2)c1Cl [Example 1-35, 2-chloro-3-(methylsulfonyl)-N-(1,3,4-oxadiazol-2-yl)-4-(trifluoromethoxy)benzamide]
Pre-emergence effect at 20 g/ha against AVEFA in % (AVEFA (Avena fatua); 20 g/ha): 90% | Pre-emergence effect at 80 g/ha against A VEFA in % (AVEFA (Avena fatua); 80 g/ha): 100% | Pre-emergence effect at 20 g/ha against ABUTH in % ([1]; 20 g/ha): 90% | Pre-emergence effect at 80 g/ha against ABUTH in % ([1]; 80 g/ha): 100% | Post-emergence effect at 20 g/ha against DIGSA in % ([2]; 20 g/ha): 90% | Post-emergence effect at 80 g/ha against DIGSA in % ([2]; 80 g/ha): 100% | Post-emergence effect at 20 g/ha against ABUTH in % ([3]; 20 g/ha): 80% | Post-emergence effect at 80 g/ha against ABUTH in % ([3]; 80 g/ha): 90% | Post-emergence effect at 20 g/ha against AMARE in % ([4]; 20 g/ha): 90% | Post-emergence effect at 80 g/ha against AMARE in % ([4]; 80 g/ha): 90% | Pre-emergence effect at 20 g/ha against MATIN in % ([5]; 20 g/ha): 100% | Pre-emergence effect at 80 g/ha against MATIN in % ([5]; 80 g/ha): 100% | Post-emergence effect at 20 g/ha against VIOTR in % (VIOTR (Viola tricolor) [6]; 20 g/ha): 100% | Post-emergence effect at 80 g/ha against VIOTR in % (VIOTR (Viola tricolor) [6]; 80 g/ha): 100% | Pre-emergence effect at 20 g/ha against VIOTR in % (VIOTR (Viola tricolor) [7]; 20 g/ha): 100% | Pre-emergence effect at 80 g/ha against VIOTR in % (VIOTR (Viola tricolor) [7]; 80 g/ha): 100% | Post-emergence effect at 20 g/ha against MATIN in % ([8]; 20 g/ha): 90% | Post-emergence effect at 80 g/ha against MATIN in % ([8]; 80 g/ha): 100% | Pre-emergence effect at 80 g/ha against VERPE in % (VERPE (Veronica persica) [9]): 100% | Post-emergence effect at 20 g/ha against SETVI in % (SETVI (Setaria viridis) [10]; 20 g/ha): 100% | Post-emergence effect at 80 g/ha against SETVI in % (SETVI (Setaria viridis) [10]; 80 g/ha): 100% | Pre-emergence effect at 20 g/ha against SETVI in % (SETVI (Setaria viridis) [11]; 20 g/ha): 100% | Pre-emergence effect at 80 g/ha against SETVI in % (SETVI (Setaria viridis) [11]; 80 g/ha): 100% | Pre-emergence effect at 20 g/ha against AMARE in % ([12]; 20 g/ha): 100% | Pre-emergence effect at 80 g/ha against AMARE in % ([12]; 80 g/ha): 100% | Post-emergence effect at 20 g/ha against VERPE in % (VERPE (Veronica persica) [13]; 20 g/ha): 90% | Post-emergence effect at 80 g/ha against VERPE in % (VERPE (Veronica persica) [13]; 80 g/ha): 100% | Post-emergence effect at 20 g/ha against PHBPU in % ([14]; 20 g/ha): 90% | Post-emergence effect at 80 g/ha against PHBPU in % ([14]; 80 g/ha): 100% | Pre-emergence effect at 20 g/ha against ECHCG in % ([15]; 20 g/ha): 100% | Pre-emergence effect at 80 g/ha against ECHCG in % ([15]; 80 g/ha): 100% | Post-emergence effect at 80 g/ha against LOLRI in % (LOLRI (Lolium rigidum) [16]): 80% | Pre-emergence effect at 20 g/ha against PHBPU in % ([17]; 20 g/ha): 80% | Pre-emergence effect at 80 g/ha against PHBPU in % ([17]; 80 g/ha): 100% | Pre-emergence effect at 20 g/ha against DIGSA in % ([18]; 20 g/ha): 100% | Pre-emergence effect at 80 g/ha against DIGSA in % ([18]; 80 g/ha): 100% | Post-emergence effect at 20 g/ha against POLCO in % ([19]; 20 g/ha): 80% | Post-emergence effect at 80 g/ha against POLCO in % ([19]; 80 g/ha): 100% | Pre-emergence effect at 20 g/ha against LOLRI in % (LOLRI (Lolium rigidum) [20]; 20 g/ha): 80% | Pre-emergence effect at 80 g/ha against LOLRI in % (LOLRI (Lolium rigidum) [20]; 80 g/ha): 90% | Pre-emergence effect at 80 g/ha against ALOMY in % [21]: 80% | Pre-emergence effect at 20 g/ha against KCHSC in % (KCHSC (Kochia scoparia) [22]; 20 g/ha): 100% | Pre-emergence effect at 80 g/ha against KCHSC in % (KCHSC (Kochia scoparia) [22]; 80 g/ha): 100% | Pre-emergence effect at 20 g/ha against POLCO in % ([23]; 20 g/ha): 90% | Pre-emergence effect at 80 g/ha against POLCO in % ([23]; 80 g/ha): 100% | Post-emergence effect at 20 g/ha against KCHSC in % (KCHSC (Kochia scoparia) [24]; 20 g/ha): 100% | Post-emergence effect at 80 g/ha against KCHSC in % (KCHSC (Kochia scoparia) [24]; 80 g/ha): 100%
